Test system: Diamond Back Moth (Plutella xylostella)
Assay: Insecticidal effect on diamond back moth (Test Example 1)
Type: in vivo
Details: 144 h, Chinese cabbage seedling with eggs immersed about 30 seconds, 25° C., hatched insects counted six days after immersion, read-out: insecticidal effect (mortality) activity ranking
Excerpt: Insecticidal Effect on Diamond Back Moth (Plutella xylostella)
Adult diamond back moths were released and allowed to oviposit on a Chinese cabbage seedling. Two days after the release, the seedling having the eggs deposited thereon was immersed for about 30 seconds in a liquid chemical prepared by diluting a preparation containing each compound listed in Tables 1 to 4 as an active ingredient to adjust the concentration to 500 ppm. After air-dryness, it was allowed to stand in a room thermostatted at 25° C. Six days after the immersion, the hatched insects were counted. The mortality was calculated according to the following equation and the insecticidal effect was judged according to the criterion shown below. The test was carried out with triplicate groups of 10 insects. [formula]

Compound: Cc1cc(OC(F)(F)F)ccc1NC(=O)c1cccc(Cl)c1-c1coc(C(C)(C)C)n1 [4-1, 2-(2-t-butyloxazol-4-yl)-3-chloro-2′-methyl-4′-trifluoromethoxybenzanilide]
- mortality at 500 ppm: 100%
